Source: ChEMBL document CHEMBL5465560, “Selectivity Literature for EUbOPEN Chemogenomic Library” (2024)
One block for each compound: values may come before it.

Assays:
[1] = biological target: T1, Serine/threonine-protein kinase Nek2 (Homo sapiens) (UniProt P51955); assay: Selectivity interaction (Kinase panel (Z-LYTE Assay)) EUB0001632a NEK2; conditions: at 10 µM
T1 sequence (whole entry): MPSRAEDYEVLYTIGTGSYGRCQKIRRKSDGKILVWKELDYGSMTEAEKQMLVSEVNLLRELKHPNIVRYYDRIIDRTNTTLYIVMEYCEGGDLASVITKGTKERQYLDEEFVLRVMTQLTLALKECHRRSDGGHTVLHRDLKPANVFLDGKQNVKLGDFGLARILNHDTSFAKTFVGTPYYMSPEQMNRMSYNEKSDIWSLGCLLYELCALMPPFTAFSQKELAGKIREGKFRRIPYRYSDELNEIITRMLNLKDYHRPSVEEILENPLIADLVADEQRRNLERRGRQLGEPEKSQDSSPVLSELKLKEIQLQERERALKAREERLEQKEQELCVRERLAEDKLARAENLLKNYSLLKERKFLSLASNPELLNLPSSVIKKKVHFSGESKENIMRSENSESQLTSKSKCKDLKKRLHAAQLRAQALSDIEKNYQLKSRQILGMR

[2] = biological target: T2, Activin receptor type-1B (Homo sapiens) (UniProt P36896); assay: Selectivity interaction (KinomeScan (DiscoverX)) EUB0000666a ACVR1B; conditions: at 10 µM
T2 sequence (whole entry): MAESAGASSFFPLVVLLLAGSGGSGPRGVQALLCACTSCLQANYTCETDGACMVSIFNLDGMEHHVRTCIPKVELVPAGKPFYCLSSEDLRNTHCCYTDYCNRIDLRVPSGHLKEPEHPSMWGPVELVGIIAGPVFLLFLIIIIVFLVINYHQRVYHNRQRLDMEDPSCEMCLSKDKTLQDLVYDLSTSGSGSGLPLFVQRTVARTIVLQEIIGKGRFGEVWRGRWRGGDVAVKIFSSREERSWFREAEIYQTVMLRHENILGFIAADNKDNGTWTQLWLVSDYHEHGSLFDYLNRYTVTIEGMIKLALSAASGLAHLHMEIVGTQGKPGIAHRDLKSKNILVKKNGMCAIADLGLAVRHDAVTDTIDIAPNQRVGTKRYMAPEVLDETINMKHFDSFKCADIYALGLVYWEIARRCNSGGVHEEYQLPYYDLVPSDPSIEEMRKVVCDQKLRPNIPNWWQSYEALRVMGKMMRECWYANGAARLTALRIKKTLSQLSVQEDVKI

[3] = biological target: T3, Inhibitor of nuclear factor kappa-B kinase subunit epsilon (Homo sapiens) (UniProt Q14164); assay: Selectivity interaction (ActivX KiNativ screen (kinase selectivity in THP-1 cell lysates)) EUB0000639a IKBKE; assay type: subcellular; conditions: lysate, at 0.2 µM
T3 sequence (whole entry): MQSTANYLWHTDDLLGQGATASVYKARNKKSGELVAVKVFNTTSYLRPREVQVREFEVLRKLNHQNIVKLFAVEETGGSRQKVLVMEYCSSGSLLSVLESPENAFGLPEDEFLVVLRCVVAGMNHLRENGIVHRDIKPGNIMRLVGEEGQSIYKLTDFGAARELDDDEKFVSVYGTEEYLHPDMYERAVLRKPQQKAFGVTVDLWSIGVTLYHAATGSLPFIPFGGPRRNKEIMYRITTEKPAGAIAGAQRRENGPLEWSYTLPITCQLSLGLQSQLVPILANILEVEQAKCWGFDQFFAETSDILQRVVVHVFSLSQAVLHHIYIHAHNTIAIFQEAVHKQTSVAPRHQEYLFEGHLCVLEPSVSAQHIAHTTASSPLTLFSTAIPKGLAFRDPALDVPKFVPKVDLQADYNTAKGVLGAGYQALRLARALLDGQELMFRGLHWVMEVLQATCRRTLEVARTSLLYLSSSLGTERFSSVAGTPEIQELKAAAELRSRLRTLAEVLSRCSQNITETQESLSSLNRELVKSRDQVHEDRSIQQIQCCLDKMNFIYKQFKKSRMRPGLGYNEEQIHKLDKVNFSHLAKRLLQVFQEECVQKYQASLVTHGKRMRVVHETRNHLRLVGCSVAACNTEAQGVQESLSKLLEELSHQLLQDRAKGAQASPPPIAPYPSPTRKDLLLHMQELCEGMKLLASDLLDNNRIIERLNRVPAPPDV

[4] = biological target: T4, Serine/threonine-protein kinase TAO3 (Homo sapiens) (UniProt Q9H2K8); assay: Selectivity interaction (KinomeScan (DiscoverX)) EUB0000595a TAOK3; conditions: at 10 µM
T4 sequence (whole entry): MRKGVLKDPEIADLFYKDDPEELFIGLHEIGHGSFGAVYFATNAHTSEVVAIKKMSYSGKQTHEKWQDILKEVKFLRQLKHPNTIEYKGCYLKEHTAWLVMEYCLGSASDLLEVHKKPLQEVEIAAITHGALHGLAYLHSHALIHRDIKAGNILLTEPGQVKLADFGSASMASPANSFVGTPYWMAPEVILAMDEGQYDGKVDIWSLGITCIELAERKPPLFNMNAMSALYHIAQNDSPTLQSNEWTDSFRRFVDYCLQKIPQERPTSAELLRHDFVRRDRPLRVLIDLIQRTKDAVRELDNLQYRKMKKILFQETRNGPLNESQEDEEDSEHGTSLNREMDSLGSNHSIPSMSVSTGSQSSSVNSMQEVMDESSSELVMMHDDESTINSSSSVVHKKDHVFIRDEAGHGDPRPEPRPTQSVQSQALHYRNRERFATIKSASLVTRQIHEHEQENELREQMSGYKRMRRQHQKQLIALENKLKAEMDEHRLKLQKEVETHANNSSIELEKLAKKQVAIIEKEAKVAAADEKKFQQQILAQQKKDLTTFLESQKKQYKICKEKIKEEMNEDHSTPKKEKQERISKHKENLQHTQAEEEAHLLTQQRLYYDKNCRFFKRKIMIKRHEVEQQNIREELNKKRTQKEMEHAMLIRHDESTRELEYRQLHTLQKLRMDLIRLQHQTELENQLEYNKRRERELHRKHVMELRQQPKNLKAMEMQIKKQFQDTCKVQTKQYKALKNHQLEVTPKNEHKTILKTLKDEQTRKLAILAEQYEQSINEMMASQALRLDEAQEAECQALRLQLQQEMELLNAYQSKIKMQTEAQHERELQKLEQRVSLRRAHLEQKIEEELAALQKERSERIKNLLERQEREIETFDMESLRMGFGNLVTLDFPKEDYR

[5] = biological target: MAP kinase-interacting serine/threonine-protein kinase 2 (Homo sapiens, UniProt Q9HBH9); assay: Selectivity interaction (KinomeScan (DiscoverX)) EUB0000595a MKNK2; conditions: at 10 µM
Chain of MAP kinase-interacting serine/threonine-protein kinase 2 (Q9HBH9 whole entry, looked up): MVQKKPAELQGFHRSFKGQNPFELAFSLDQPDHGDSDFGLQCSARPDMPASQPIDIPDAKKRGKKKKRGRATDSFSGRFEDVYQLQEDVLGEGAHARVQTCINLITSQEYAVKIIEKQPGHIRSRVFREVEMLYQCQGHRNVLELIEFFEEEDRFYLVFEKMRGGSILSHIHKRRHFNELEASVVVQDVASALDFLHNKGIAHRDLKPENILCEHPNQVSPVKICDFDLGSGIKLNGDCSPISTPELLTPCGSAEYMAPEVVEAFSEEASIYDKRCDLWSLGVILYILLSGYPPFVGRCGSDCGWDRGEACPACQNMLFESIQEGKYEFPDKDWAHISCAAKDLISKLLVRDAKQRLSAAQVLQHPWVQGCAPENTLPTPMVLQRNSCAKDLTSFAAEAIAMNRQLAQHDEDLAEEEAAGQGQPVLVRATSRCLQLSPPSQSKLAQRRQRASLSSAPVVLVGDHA

[6] = Selectivity interaction (KinomeScan (DiscoverX)) EUB0001049a CDPK1; conditions: at 1 µM
[7] = biological target: RAF proto-oncogene serine/threonine-protein kinase (Homo sapiens) (UniProt P04049); assay: Selectivity interaction (KinomeScan (DiscoverX)) EUB0000229b RAF1; conditions: at 10 µM
Chain of RAF proto-oncogene serine/threonine-protein kinase (Homo sapiens) (P04049 whole entry): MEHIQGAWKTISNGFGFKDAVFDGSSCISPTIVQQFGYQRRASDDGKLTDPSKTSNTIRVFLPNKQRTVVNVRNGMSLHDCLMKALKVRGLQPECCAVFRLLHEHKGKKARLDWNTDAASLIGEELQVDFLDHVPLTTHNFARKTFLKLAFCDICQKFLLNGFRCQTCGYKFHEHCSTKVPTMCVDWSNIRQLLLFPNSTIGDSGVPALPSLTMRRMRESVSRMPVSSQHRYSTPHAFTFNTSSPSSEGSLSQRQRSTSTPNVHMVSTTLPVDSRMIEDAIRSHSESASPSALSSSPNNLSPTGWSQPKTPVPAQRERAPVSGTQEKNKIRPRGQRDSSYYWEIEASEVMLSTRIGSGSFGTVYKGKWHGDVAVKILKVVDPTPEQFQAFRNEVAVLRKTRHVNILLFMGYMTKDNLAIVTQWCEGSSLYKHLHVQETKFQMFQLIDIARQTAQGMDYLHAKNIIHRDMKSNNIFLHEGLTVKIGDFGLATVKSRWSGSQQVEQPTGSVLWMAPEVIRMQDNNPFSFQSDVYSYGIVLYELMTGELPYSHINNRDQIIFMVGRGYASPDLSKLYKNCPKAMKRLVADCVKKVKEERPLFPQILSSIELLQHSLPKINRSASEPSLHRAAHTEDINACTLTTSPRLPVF

[8] = biological target: Myosin-IIIa (Homo sapiens) (UniProt Q8NEV4); assay: Selectivity interaction (KinomeScan (DiscoverX)) EUB0000229b MYO3A; conditions: at 10 µM
Chain of Myosin-IIIa (Homo sapiens) (Q8NEV4 whole entry): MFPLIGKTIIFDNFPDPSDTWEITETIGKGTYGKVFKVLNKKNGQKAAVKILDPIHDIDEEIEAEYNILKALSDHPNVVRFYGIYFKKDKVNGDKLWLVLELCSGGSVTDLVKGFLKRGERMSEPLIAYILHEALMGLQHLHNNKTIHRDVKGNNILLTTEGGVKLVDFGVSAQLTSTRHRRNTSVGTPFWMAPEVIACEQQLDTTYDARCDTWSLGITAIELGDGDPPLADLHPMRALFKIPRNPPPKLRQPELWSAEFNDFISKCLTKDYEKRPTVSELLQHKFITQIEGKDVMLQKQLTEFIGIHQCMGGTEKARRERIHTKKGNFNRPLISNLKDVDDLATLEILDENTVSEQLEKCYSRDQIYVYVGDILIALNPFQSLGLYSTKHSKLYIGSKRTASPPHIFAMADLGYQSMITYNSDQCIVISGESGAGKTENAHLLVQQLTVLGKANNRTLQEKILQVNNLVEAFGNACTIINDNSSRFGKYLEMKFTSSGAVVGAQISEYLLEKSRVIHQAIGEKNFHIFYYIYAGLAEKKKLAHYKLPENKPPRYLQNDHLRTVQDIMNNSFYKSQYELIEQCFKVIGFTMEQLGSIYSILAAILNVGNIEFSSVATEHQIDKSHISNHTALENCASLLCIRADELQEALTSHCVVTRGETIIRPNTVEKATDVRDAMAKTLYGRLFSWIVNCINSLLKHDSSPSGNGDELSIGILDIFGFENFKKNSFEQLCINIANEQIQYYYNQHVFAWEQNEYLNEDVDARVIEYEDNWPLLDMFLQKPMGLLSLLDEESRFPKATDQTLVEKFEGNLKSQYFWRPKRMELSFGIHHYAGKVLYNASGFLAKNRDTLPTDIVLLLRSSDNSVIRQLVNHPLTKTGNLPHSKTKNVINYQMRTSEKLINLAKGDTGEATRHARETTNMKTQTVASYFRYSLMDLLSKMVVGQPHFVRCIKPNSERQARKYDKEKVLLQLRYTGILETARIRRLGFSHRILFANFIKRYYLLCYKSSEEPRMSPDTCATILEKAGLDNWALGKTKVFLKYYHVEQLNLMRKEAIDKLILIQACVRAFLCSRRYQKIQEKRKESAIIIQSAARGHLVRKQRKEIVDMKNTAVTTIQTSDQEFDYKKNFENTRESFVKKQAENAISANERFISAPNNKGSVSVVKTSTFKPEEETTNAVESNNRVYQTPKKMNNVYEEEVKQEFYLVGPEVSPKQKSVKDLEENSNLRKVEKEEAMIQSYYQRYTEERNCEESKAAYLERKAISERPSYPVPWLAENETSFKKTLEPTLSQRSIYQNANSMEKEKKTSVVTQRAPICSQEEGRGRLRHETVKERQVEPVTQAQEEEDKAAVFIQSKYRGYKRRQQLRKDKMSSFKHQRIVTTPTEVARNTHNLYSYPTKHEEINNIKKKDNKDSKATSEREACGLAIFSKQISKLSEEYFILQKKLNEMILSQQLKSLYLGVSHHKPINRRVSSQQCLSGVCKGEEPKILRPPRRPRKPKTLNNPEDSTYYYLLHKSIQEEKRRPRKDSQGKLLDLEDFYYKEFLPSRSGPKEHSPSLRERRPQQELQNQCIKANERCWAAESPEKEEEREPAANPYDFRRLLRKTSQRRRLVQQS

[9] = biological target: Serine/threonine-protein kinase pim-2 (Homo sapiens, UniProt Q9P1W9); assay: Selectivity interaction (KinomeScan (DiscoverX)) EUB0001619a PIM2; conditions: at 1 µM
Chain of Serine/threonine-protein kinase pim-2 (Q9P1W9 whole entry, looked up): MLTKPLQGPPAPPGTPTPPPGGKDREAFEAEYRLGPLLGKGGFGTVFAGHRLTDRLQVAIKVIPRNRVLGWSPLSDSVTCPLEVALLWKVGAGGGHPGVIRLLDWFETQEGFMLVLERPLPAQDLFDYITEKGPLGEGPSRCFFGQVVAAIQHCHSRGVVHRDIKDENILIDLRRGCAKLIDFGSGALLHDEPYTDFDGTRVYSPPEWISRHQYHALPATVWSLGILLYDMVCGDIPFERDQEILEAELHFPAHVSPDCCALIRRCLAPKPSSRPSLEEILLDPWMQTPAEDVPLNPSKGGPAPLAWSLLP

% of control [1]: 1.81%
Compound: Cn1cc(-n2cnc3c(NCc4nc5cc(Cl)c(Cl)cc5[nH]4)nc(N4CCOCC4)nc32)cn1

Compound: O=C(NOC[C@H](O)CO)c1ccc(F)c(F)c1Nc1ccc(I)cc1F
% of control [2]: 100%

% of inhibition [3]: -29.9%
Compound: CC[C@@H]1[C@H](F)C(=O)N[C@@H]1COc1nccc2cc(C(N)=O)c(OC)cc12 [ZIMLOVISERTIB]

Compound: COCC(=O)NC/C=C/c1ccc2ncnc(Nc3ccc(Oc4ccc(C)nc4)c(C)c3)c2c1 [CP-724714]
% of control [4]: 100%
% of control [5]: 1.4%

Compound: COc1cc(Nc2nc(C)cc(-c3cnn4nc(OC)ccc34)n2)cc(C(F)(F)F)c1
% of control [6]: 74%

Compound: COc1cc(N(C)c2ccnc3ccc(C(F)(F)F)cc23)cc(OC)c1OC
% binding [7]: 91%
% binding [8]: 94%

Compound: N#Cc1cccc(-c2c[nH]c3ncnc(N4CCOCC4)c23)c1
% of control [9]: 100%
